Results reported in patent publication US20230093311A1, “HEAT TOLERANCE OR DRYING TOLERANCE IMPROVING AGENT, SALT TOLERANCE IMPROVING AGENT, ACTIVITY IMPROVING AGENT FOR PLANT” (priority 2020, published 2023).
Like-named read-outs stand apart in the source and are kept apart here.

Key:
[1] = tested on: Peperomia (Peperomia albovittata); experiment: Activation test 1 (induction and growth of flower buds); settings: 50 mL at root, 24 hours: 20 mM acetic acid alone, or 20 mM acetic acid and 0.075 μM malic acid, 22° C., humidity 40%, left standing 3 weeks
[2] = tested on: spinach; experiment: Activation test 5 (maintenance of freshness and water after harvest); assay type: in vivo, Spinacia oleracea; settings: 100 mL/plant at root on the day before harvest, humidity 40%
Procedure: 18 hours later, the aerial part was harvested by cutting at the root with a cutter, and 5 bunches were wrapped with a piece of newspaper having the same area (30 cm×45 cm) among samples. Four types in total of test groups (20 individuals in total) including all the test groups were placed in a plastic bag (25 cm×[…]), positioned in an upright posture with the mouth of the bag opened, and stored in a refrigerator of 4° C. with a humidity of 40%. Time-dependent change in the weight of each individual was measured with a weight scale. […] The mean and standard deviation of change in the weights of 20 individuals at each time per group were determined.

[3] = tested on: stem lettuce (Lactuca sativa L.); settings: humidity 40%; for survival rate: 50 mL of 10 mM aqueous acetic acid solution at root, 24 hours, then 42° C., continuous light, no water supply
Procedure: (§1) A plant that was irrigated, at its root, with 50 mL of water and allowed to absorb it over 24 hours was assigned to water treatment group 1, and a plant that was irrigated, at its root, with 50 mL of a 10 mM aqueous acetic acid solution and allowed to absorb it over 24 hours was assigned to acetic acid treatment group 1.
(§2) The survival rate was calculated by counting the number of stem lettuce seedlings that were not killed by firing.

[4] = tested on: Carrot (Daucus carota subsp. sativus); experiment: Activation test 3 (root growth, plant size after harvest); assay type: in vivo; settings: 0.24% (w/w) malic acid, 0.06% (w/w) acetic acid, or both, pH=6.0; 50 mL at root 3 times; harvest 90 days after first irrigation; Welch test
Procedure: Carrot (Daucus carota subsp. sativus of the family Apiaceae) budded from seeds direct-seeded in a farm field was used.
During the test period, each plant was watered by natural rainfall.
2 weeks after budding, a seedling having four to five true leaves was irrigated, at its root, with 50 mL of each testing solution. 3 weeks and 6 weeks after the initial irrigation treatment, the plant was irrigated again with 50 mL of the testing solution (irrigated a total of 3 times).
90 days after the first irrigation treatment, plant individuals were harvested, and aerial parts (leaf parts) were cut off to prepare edible root parts. Then, the wet weights of 100 individuals per test group were measured. Top 10% and bottom 10% of the data were removed, and the average weight and standard deviation of the plants in each test group were calculated as to the remaining 80 individuals.

[5] = tested on: tomato (breed: Momotaro, Solanum lycopersicum); settings: for survival rate: 50 mL at root, 24 hours: 20 mM acetic acid alone, or 10 mM acetic acid and 10 mM malic acid, then 50° C., humidity 10%, no water supply
Procedure: as §1, with “3,” for “1,”, “20” for “10”, “3. Also, a plant that was irrigated, at its root, with 50 mL of an aqueous solution containing 10 mM acetic acid and 10 mM malic acid and allowed to absorb it over 24 hours was assigned to treatment group 3.” for “1.”
as §2

[6] = tested on: aromaticus (Plectranthus amboinicus); experiment: Activation test 4 (induction of roots); settings: cuttings dipped in 200 mL testing solution (0.06% (w/w) acetic acid, or 0.24% (w/w) malic acid and 0.06% (w/w) acetic acid, pH=6.0), raised 2 weeks
[7] = tested on: Swamp chrysanthemum (Leucanthemum paludosum); experiment: Activation test 6 (induction and growth of flower buds); assay type: in vivo; settings: for number of new flower buds compared with water treatment group 6: pots dipped in 200 mL testing solution 24 hours, apical buds cut off, counted 3 weeks later, 0.24% (w/w) malic acid, 0.06% (w/w) acetic acid, or both, pH=6.0
Excerpt: Swamp chrysanthemum (Leucanthemum paludosum of the family Compositae) raised in a 9 cm pot was used. […] All apical buds of the plants thus treated with the solution were cut off (pinched) with scissors.

[8] = tested on: Spinach (Spinacia oleracea); experiment: Activation test 2 (plant growth, plant size after harvest); assay type: in vivo; settings: pH=6.0, 50 mL at root 3 times, harvest 45 days after first irrigation
Procedure: Spinach (Spinacia oleracea of the family Amaranthaceae) budded from seeds direct-seeded in a farm field in a plastic greenhouse was used. During the test period, each plant was watered twice a day at 6 a.m. and 4 p.m. from an automatically controlled irrigation system. 2 weeks after budding, a seedling having three to five true leaves was irrigated, at its root, with 50 mL of each testing solution given below. 2 weeks and 4 weeks after the initial irrigation treatment, the plant was irrigated again with 50 mL of the testing solution (irrigated a total of 3 times). […] The average weight and standard deviation of the plants in each test group were calculated. […] The results of the Welch test in these and following drawings mean *: p<0.05 and **: p<0.01. The testing solutions used are as described below. Testing solutions prepared in the same way were also used in activation tests 3 to 6 given below. […] Malic acid treatment group 2: 0.24% (w/w) aqueous malic acid solution Acetic acid treatment group 2: 0.06% (w/w) aqueous acetic acid solution Treatment group 2: aqueous solution containing 0.24% (w/w) malic acid and 0.06% (w/w) acetic acid Each solution was adjusted to pH=6.0 using KOH.

Compound	number of flower buds after flowering that grew into 3 cm or larger ([1]; water treatment group 0)	number of flower buds formed before flowering ([1]; water treatment group 3)	effect of maintaining the freshness of plants after harvest ([2]; stored at 4° C.)	reduction preventing effect on decrease in water content compared with water treatment group 5 ([2]; after 96 hours at 4° C., 0.06% (w/w) acetic acid, or with 0.24% (w/w) malic acid) [%]	water retaining effect compared with water treatment group 5 and malic acid treatment group 5 ([2]; at and after 12 hours from the start of refrigeration, 4° C.)	ability of plants to tolerate drying at a high temperature ([3]; 10 mM acetic acid, 42° C., compared with water treatment group 1)	survival rate ([3]; left standing 5 days) [%]	survival rate ([3]; still standing 7 days) [%]	significant difference in wet root weight after harvest against water treatment group 3 [4]	survival rate ([5]; still standing 3 days) [%]	survival rate ([5]; still standing 4 days) [%]	ability to tolerate drying at a high temperature (order of groups) ([5]; order: acetic acid+malic acid treatment group 3, acetic acid treatment group 3, water treatment group 3)	new roots confirmed [6]	new formation and formation of apical buds and flower buds ([7]; conclusion of activation test 6)	number of new flower buds compared with water treatment group 6 [7]	increase in wet weight ([8]; against water treatment group 2, 0.06% (w/w) acetic acid, or 0.24% (w/w) malic acid and 0.06% (w/w) acetic acid, 20 individuals) [%]	significant difference in the rate of decrease in wet weight against water treatment group 5 ([2]; 0.24% (w/w) malic acid, pH=6.0, stored at 4° C.)	significant difference in wet weight against water treatment group 2 ([8]; 0.24% (w/w) aqueous malic acid solution, Welch test)
CC(=O)O [acetic acid]	0	5	effect of maintaining the freshness of plants after harvest was shown	7.1	marked water retaining effect	potentiated the ability of plants to tolerate drying at a high temperature	100	100	No significant difference	100	0	more potentiated	New roots were confirmed in neither	can promote the new formation and formation of apical buds and flower buds	increase in the number of flower buds	122	–	–
O=C(O)CC(O)C(=O)O (centres unmarked) [malic acid]	–	–	–	–	–	–	–	–	No significant difference	–	–	–	–	–	No significant difference	–	No significant difference	No significant difference
